Results reported in publication PMC8145596, “Novel Chemically Modified Curcumin (CMC) Derivatives Inhibit Tyrosinase Activity and Melanin Synthesis in B16F10 Mouse Melanoma Cells” (Biomolecules, 2021).

What was measured:
[1] = Copper chelating assay (pyrocatechol violet)
Method: Copper chelation can be detected by a PV colorimetric assay as reported in other studies and similar to the method reported in our previous study. Briefly, 100 µL aliquots of different concentrations of compounds prepared in 50 mM sodium acetate buffer (pH 6.0) were added to a 96-well plate. The control group consisted of buffer only, while KA at 500 µM served as a positive control. Copper sulfate (2 mM; 10 µL) was added to each of the samples and incubated for 10 min. Next, 10 µL of 2 mM PV was added and the plate was further incubated for 20 min. The absorbance was read at 632 nm using a microplate reader; a lower absorbance compared to that of the buffer control was indicative of copper chelation.

[2] = system: MNT-1 human melanoma cells; experiment: Melanin content assay in MNT-1 cells; type: cell-based; settings: 48 h; CMC2.24 at 20 µM; preliminary evaluation
Method: (§1) II. Experiments in MNT-1 human melanoma cells
(§2) MNT-1 cells (kindly provided by Dr. Michael Marks, University of Pennsylvania) were cultured using DMEM supplemented with 1 % MEM (minimum essential medium), 18 % HI-FBS, 10 % AIM-V medium (Gibco) and 1 % antibiotic mixture.
(§3) MNT-1 human melanoma cells (2 × 10^4 cells/ well) were seeded in a 96-well plate and cultured for 96 h. After this, the test compounds were added in complete medium and cultures were maintained for 48 h, followed by conducting the MTS assay to detect cytotoxicity similar to methods reports in main text. The results were expressed as % normalized to untreated control group.
(§4) MNT-1 human melanoma cells were seeded at 2.2 × 10^5 cells/well in 12-well plates and incubated for 24 hours. […] Briefly, the absorbance of melanin was measured at 475 nm and was normalized to the total protein contents and reported as relative melanin levels as a % of control.
(§5) Figure S3: Viability of MNT-1 cells treated with A) PC, CMC2.14 and CMC2.5 and B) CMC2.23 and CMC2.24 for a duration of 48 h evaluated by MTS assay; Data for A)-B) are mean ± SD of 3-4 determinations; C) Melanin content in cultures of MNT-1 cells treated for 48 h with different concentrations of PC and CMCs, Data are mean ± SD of values combined from two independent experiments. * p < 0.05 vs. control (Ctrl); One-way ANOVA with Tukey’s […]

breast cancer cells = system: breast cancer cells; set-up: method as in PMID 31505772; settings: cited from earlier work
MTS cell viability assay = type: cell-based, mouse; settings: mouse, B16F10 mouse melanoma cells, 48 h, B16F10
Method: B16F10 mouse melanoma cells (CRL-6475™) were obtained from American Type Culture Collection (ATCC, Manassas, VA, USA) and cultured using Dulbecco’s Modified Eagle Medium (DMEM) supplemented with 10% heat-inactivated fetal bovine serum (HI-FBS) and 1% antibiotics (penicillin-streptomycin) in a humidified incubator with 95% air—5% CO2 at 37 °C. In order to test the four CMCs (CMC2.14, CMC2.24, CMC2.5 and CMC2.23) to that of PC, for their effects on melanin content, we first screened them for cytotoxicity using a tetrazolium assay with MTS (Promega CellTiter Aqueous One). Briefly, B16F10 cells were seeded at 4 × 10^3 cells/well in a 96-well plate for 24 h. The compounds were diluted using culture medium to yield a final DMSO in all groups of 0.16% and added to the cell monolayers in wells after 24 h. Control was treated with 0.16% DMSO. At the end of 48 h, the medium was aspirated and replaced by 100 μL of fresh medium. 20 μL of MTS reagent was then added, and the plate was incubated at 37 °C for 40 min. At this point, the absorbance of 100 μL aliquots was read at 490 nm using a microplate reader. Cell viability was calculated from the absorbance values relative to control groups and expressed in %.

[3] = system: MNT-1 human melanoma cells; experiment: MTS cytotoxicity assay in MNT-1 cells; type: cell-based; settings: 20 µM, 48 h
Method: as §1, §2, §3, §4, §5

1,7-bis(4-hydroxy-3-methoxyphenyl)-1,6-heptadien-3,5-dione [PC, reference compound]
effect on copper chelation [1]: did not show any effect on copper chelation
melanin inhibition in MNT-1 cells [2]: ineffective
concentrations highly cytotoxic to breast cancer cells (breast cancer cells): > 10 µM

COC(=O)/C(C(=O)/C=C/c1ccc(O)cc1)=C(O)\C=C\c1ccc(O)cc1 [CMC2.14]
viability at 48 h, 20 µM (MTS cell viability assay; 20 µM): 72.2%
viability at 48 h, 25 µM (MTS cell viability assay; 25 µM): 55.5%

O=C(/C=C/c1ccc(O)cc1)/C(C(=O)Nc1ccccc1)=C(O)/C=C/c1ccc(O)cc1 [CMC2.24]
copper chelating activity ([1]; 20 µM, compared to the control): 11.86%
melanin inhibition in MNT-1 cells [2]: significant attenuation of melanin levels
cytotoxicity in MNT-1 cells [3]: nontoxic
